Patent US20260124222A1, “ISOTHIAZOLYLCARBOXAMIDE COMPOUNDS AND THEIR USE IN THERAPY” (HOTSPOT THERAPEUTICS, INC., priority 2022, published 2026)

The compounds below were run against T1, Avi-tagged FL MALT-1 (Homo sapiens, UniProt Q9UDY8) (assay: MALT-1 Fluorogenic Peptide Cleavage Assay (MALT1 inhibition assay)). Settings: Ac-LRSR-AMC peptide substrate; 30 min pre-incubation, 90 min reaction at room temperature; fluorescence.
T1 construct: Avi-tagged FL MALT-1 (Pharmaron, stored at −70° C.); Avi-tag; purchased Pharmaron
T1 sequence (Q9UDY8 1-824): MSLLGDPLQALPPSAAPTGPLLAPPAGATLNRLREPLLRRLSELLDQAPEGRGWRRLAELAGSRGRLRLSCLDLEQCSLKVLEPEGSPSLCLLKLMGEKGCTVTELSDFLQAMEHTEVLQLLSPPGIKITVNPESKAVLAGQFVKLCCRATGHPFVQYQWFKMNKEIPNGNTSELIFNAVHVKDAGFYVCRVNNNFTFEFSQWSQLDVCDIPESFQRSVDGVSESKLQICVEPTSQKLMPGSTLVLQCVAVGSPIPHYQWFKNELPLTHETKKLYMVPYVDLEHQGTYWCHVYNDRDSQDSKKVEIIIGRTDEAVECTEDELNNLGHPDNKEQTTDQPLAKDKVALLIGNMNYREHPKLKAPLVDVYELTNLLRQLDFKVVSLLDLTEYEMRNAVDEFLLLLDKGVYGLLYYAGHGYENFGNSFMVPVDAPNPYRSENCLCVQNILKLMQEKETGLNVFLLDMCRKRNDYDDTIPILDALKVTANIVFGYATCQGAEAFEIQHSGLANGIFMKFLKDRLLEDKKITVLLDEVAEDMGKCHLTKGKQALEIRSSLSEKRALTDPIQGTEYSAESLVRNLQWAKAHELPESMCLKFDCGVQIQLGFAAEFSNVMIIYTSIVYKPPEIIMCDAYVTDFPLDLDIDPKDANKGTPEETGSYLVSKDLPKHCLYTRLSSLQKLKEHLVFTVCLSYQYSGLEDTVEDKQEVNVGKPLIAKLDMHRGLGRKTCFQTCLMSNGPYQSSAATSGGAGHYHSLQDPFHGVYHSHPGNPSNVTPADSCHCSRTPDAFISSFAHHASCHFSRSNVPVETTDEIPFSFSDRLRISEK
Assay type: biochemical
Description: Inhibition of MALT1 activity by a small molecule was evaluated using MALT-1 Fluorogenic Peptide Cleavage Assay. The assay utilizes a quenched AMC-labelled peptide that contains the MALT-1 recognition sequence and cleavage site (LRSR). MALT-1 mediated cleavage of the peptide relieves the quenching and leads to an increase in fluorescence at excitation (342 nm) and emission (441 nm).
The following reagents were obtained commercially and used to prepare standard reagent formulations as further described below: N-2-hydroxyethylpiperazine-N-2-ethane sulfonic acid (HEPES) (1 M, pH 7.5, stored at 4° C.), sodium citrate (stored at RT), tris(2-carboxyethyl)phosphine hydrochloride (T-CEP) (500 mM, stored at −20° C.), ethylenediaminetetraacetic acid (EDTA) (500 mM, stored at RT), dimethylsulfoxide (DMSO, stored at RT), 3-[(3-cholamidopropyl)dimethylammonio]-1-propane sulphate (CHAPS) (stored at RT), dimethylsulfoxide (DMSO), DMSO (Fisher Scientific, stored at RT), Avi-tagged FL MALT-1 (Pharmaron, stored at −70° C.), Ac-LRSR-AMC Peptide (SM Biochemicals, stored at −20° C.), and ultrapure water (MILLI-Q®).
The standard reagent formulations used in this assay were prepared and stored as follows. A 1.1 M solution of sodium citrate (161.3 g, 500 mL) was prepared and stored at room temperature. A 10% (w/v) CHAPS solution (2.0 g, 20 mL) was prepared and stored at 4° C. A 500 mM HEPES solution having pH of 6.89 was prepared from 200 mL of a 1 M HEPES solution having a pH of 7.5 using concentrated hydrochloric acid and brought to a final volume of 400 mL with MILLI-Q© H2O. The substrate, 10 mM Ac-LRSR-AMC Peptide, was prepared (10 mg, 1.370 mL DMSO) and stored at −20° C.
Compounds were plated to provide a 2% DMSO final concentration using a ProxiPlate-384 Plus F Black 384-shallow well microplate. The assay-ready plates were equilibrated to room temperature. A reaction buffer (30 mL total volume) was prepared by combining HEPES (pH 6.89, 25 mM, 1.5 mL), sodium citrate (660 mM, 18.0 mL), T-CEP (1 mM, 0.06 mL), EDTA (0.1 mM, 0.06 mL), CHAPS (0.05%, 0.15 mL), DMSO (2%, 0.6 mL), and MILLI-Q® H2O (10.23 mL; 9.63 mL when backfilled to 2% DMSO) followed by thorough mixing.
MALT-1 was thawed and kept on ice. Peptide substrate was thawed on the bench under ambient conditions. A MALT-1 enzyme working stock was prepared from Avi-tagged FL MALT-1 (40 nM in a prepared reagent volume of […]) and the reaction buffer (13.0 mL). MALT1 working stock (5 μL) was added to each well of the microplate. MALT-1 was pre-incubated with compounds for 30 minutes at room temperature.
Two substrate working stocks (Km and 10×Km) were prepared. The 1×Km substrate was prepared from Ac-LRSR-AMC Peptide (50 μM in a prepared reagent volume of […]) and the reaction buffer (6.965 mL). The 10×Km substrate was prepared from Ac-LRSR-AMC Peptide ([…] in a prepared reagent volume of 196.0 μL) and the reaction buffer (6.804 mL). The reaction was initiated by the addition of substrate working stock (5 μL, 50 μM) to Km plates and the addition of substrate working stock (5 μL 280 μM) to 10×Km plates. The plates were covered and incubated on the bench at room temperature for 90 minutes.
Fluorescence intensity was determined using a CLARIOstar microplate reader (BMG LABTECH) using the optimised AMC mode. Before taking readings, a 70% gain was applied on the neutral control well. Compound data were normalised to % Inhibition and used to plot sigmoidal concentration response curves to yield various parameters including IC50.

First: O=C(Nc1ccnc(C(F)(F)F)c1)c1snc(-c2ccn3ccnc3c2)c1C1CC1 [I-185, 4-cyclopropyl-3-(imidazo[1,2-a]pyridin-7-yl)-N-(2-(trifluoromethyl)pyridin-4-yl)isothiazole-5-carboxamide]
Second: O=C(Nc1ccnc(C(F)(F)F)c1)c1snc(-c2ccncc2)c1C1CC1 [I-184, 4-cyclopropyl-3-(pyridin-4-yl)-N-(2-(trifluoromethyl)pyridin-4-yl)isothiazole-5-carboxamide]
The IC50 of the first is higher: 1 to 2.5 µM for the first, ≤ 0.4 µM for the second.

Compared with `Cn1ccc(-c2nsc(C(=O)Nc3ccnc(C(F)(F)F)c3)c2C2CC2)n1` [I-150, 4-cyclopropyl-3-(1-methyl-1H-pyrazol-3-yl)-N-(2-(trifluoromethyl)pyridin-4-yl)isothiazole-5-carboxamide], `Cc1nn(C)cc1-c1nsc(C(=O)Nc2ccnc(C(F)(F)F)c2)c1C1CC1` [I-143, 4-cyclopropyl-3-(1,3-dimethyl-1H-pyrazol-4-yl)-N-(2-(trifluoromethyl)pyridin-4-yl)isothiazole-5-carboxamide] is lower in IC50: 1 to 2.5 µM for the first, ≤ 0.4 µM for the second.

`N#Cc1cc(NC(=O)c2snc(-c3cccc4ncccc34)c2C2CC2)cnc1-n1nccn1` [I-123] and `Cn1ncc2cccc(-c3nsc(C(=O)Nc4cnc(-n5nccn5)c(C#N)c4)c3C3CC3)c21` [I-101] cannot be ordered by IC50: ≤ 0.4 µM for the first, ≤ 0.4 µM for the second.

Compared with `CN(C)c1ccc(-c2nsc(C(=O)Nc3ccnc(C(F)(F)F)c3)c2C2CC2)cc1` [I-145, 4-cyclopropyl-3-[4-(dimethylamino)phenyl]-N-[2-(trifluoromethyl)pyridine-4-yl]-1,2-thiazole-5-carboxamide], `CC(=O)Nc1ccc(-c2nsc(C(=O)Nc3ccnc(C(F)(F)F)c3)c2C2CC2)cc1` [I-148, 3-(4-acetamidophenyl)-4-cyclopropyl-N-(2-(trifluoromethyl)pyridin-4-yl)isothiazole-5-carboxamide] is lower in IC50: > 2.5 µM for the first, 0.4 to 1 µM for the second. The second is the more potent here.

First: Cn1cc2c(-c3nsc(C(=O)Nc4cc(C(F)(F)F)ccn4)c3C3CC3)cccc2n1 [I-209, 4-cyclopropyl-3-(2-methylindazol-4-yl)-N-[4-(trifluoromethyl)pyridine-2-yl]-1,2-thiazole-5-carboxamide]
Second: Cn1ccc2c(-c3nsc(C(=O)Nc4ccnc(C(F)(F)F)c4)c3C3CC3)ccnc21 [I-175, 4-cyclopropyl-3-{1-methylpyrrolo[2,3-b]pyridin-4-yl}-N-[2-(trifluoromethyl)pyridin-4-yl]-1,2-thiazole-5-carboxamide]
The IC50 of the first is higher: > 2.5 µM for the first, ≤ 0.4 µM for the second. The second is the more potent here.

`COCCN(C)C(=O)c1ccc(NC(=O)c2snc(-c3ccccc3)c2C2CC2)cc1Cl` [I-25, N-(3-CHLORO-4-((2-METHOXYETHYL) (METHYL) CARBAMOYL)PHENYL)-4-CYCLOPROPYL-3-PHENYL-ISOTHIAZOLE-5-CARBOXAMIDE] and `COc1ncc(NC(=O)c2snc(-c3ccccc3)c2C2CC2)cc1Cl` [I-40, N-(5-CHLORO-6-METHOXYPYRIDIN-3-YL)-4-CYCLOPROPYL-3-PHENYLISOTHIAZOLE-5-CARBOXAMIDE] cannot be ordered by IC50: ≤ 0.4 µM for the first, ≤ 0.4 µM for the second.

Compared with `Cn1cccc(-c2nsc(C(=O)Nc3cnc(-n4nccn4)c(C#N)c3)c2C(F)(F)F)c1=O` [I-108], `O=C(Nc1cnc(-n2nccn2)c(Cl)c1)c1snc(-c2ccccc2)c1C(F)(F)F` [I-7, N-(5-CHLORO-6-(2H-1,2,3-TRIAZOL-2-YL) PYRIDIN-3-YL)-3-PHENYL-4-(TRIFLUOROMETHYL)ISOTHIAZOLE-5-CARBOXAMIDE] is lower in IC50: 1 to 2.5 µM for the first, ≤ 0.4 µM for the second. The second is the more potent here.

`Cc1ncccc1-c1nsc(C(=O)Nc2ccnc(C(F)(F)F)c2)c1C1CC1` [I-171, 4-cyclopropyl-3-(2-methylpyridin-3-yl)-N-[2-(trifluoromethyl)pyridin-4-yl]-1,2-thiazole-5-carboxamide] and `COc1ncccc1-c1nsc(C(=O)Nc2ccnc(C(F)(F)F)c2)c1C1CC1` [I-163, 4-cyclopropyl-3-(2-methoxypyridin-3-yl)-N-(2-(trifluoromethyl)pyridin-4-yl)isothiazole-5-carboxamide] cannot be ordered by IC50: ≤ 0.4 µM for the first, ≤ 0.4 µM for the second.

`CCc1c(-c2ccccc2)nsc1C(=O)Nc1cnc(-n2nccn2)c(Cl)c1` [I-11, N-(5-CHLORO-6-(2H-1,2,3-TRIAZOL-2-YL) PYRIDIN-3-YL)-4-ETHYL-3-PHENYLISOTHIAZOLE-5-CARBOXAMIDE] and `O=C(Nc1cnc(-n2nccn2)c(Cl)c1)c1snc(-c2cccc3c(=O)[nH]ccc23)c1C(F)(F)F` [I-107] cannot be ordered by IC50: ≤ 0.4 µM for the first, ≤ 0.4 µM for the second.

`O=C(Nc1ccnc(C(F)(F)F)c1)c1snc(-c2ccncc2F)c1C1CC1` [I-155, 4-cyclopropyl-3-(3-fluoropyridin-4-yl)-N-[2-(trifluoromethyl)pyridin-4-yl]-1,2-thiazole-5-carboxamide] and `Cc1cncc(-c2nsc(C(=O)Nc3ccnc(C(F)(F)F)c3)c2C2CC2)c1` [I-167, 4-cyclopropyl-3-(5-methylpyridin-3-yl)-N-(2-(trifluoromethyl)pyridin-4-yl)isothiazole-5-carboxamide] cannot be ordered by IC50: ≤ 0.4 µM for the first, 0.4 to 1 µM for the second.

`O=C(Nc1ccnc(C(F)(F)F)c1)c1snc(-c2ccccc2Cl)c1C1CC1` [I-135, 3-(2-chlorophenyl)-4-cyclopropyl-N-[2-(trifluoromethyl)pyridin-4-yl]-1,2-thiazole-5-carboxamide] and `Cc1ccc(-c2nsc(C(=O)Nc3ccnc(C(F)(F)F)c3)c2C2CC2)c2cccnc12` [I-140, 4-cyclopropyl-3-(8-methylquinolin-5-yl)-N-[2-(trifluoromethyl)pyridin-4-yl]-1,2-thiazole-5-carboxamide] cannot be ordered by IC50: ≤ 0.4 µM for the first, ≤ 0.4 µM for the second.

Compared with `CN1Cc2cc(NC(=O)c3snc(-c4ccccc4)c3C3CC3)cnc2C1=O` [I-111], `CNC(=O)c1cccc(-c2nsc(C(=O)Nc3ccnc(C(F)(F)F)c3)c2C2CC2)c1` [I-193, 4-cyclopropyl-3-(3-(methylcarbamoyl)phenyl)-N-(2-(trifluoromethyl)pyridin-4-yl)isothiazole-5-carboxamide] is lower in IC50: > 2.5 µM for the first, 0.4 to 1 µM for the second. The second is the more potent here.

First: CNC(=O)c1ccc(-c2nsc(C(=O)Nc3ccnc(C(F)(F)F)c3)c2C2CC2)cc1 [I-176, 4-cyclopropyl-3-[4-(methylcarbamoyl)phenyl]-N-[2-(trifluoromethyl)pyridin-4-yl]-1,2-thiazole-5-carboxamide]
Second: O=C(Nc1ccnc(C(F)(F)F)c1)c1snc(-c2ccc3scnc3c2)c1C1CC1 [I-142, 3-(1,3-benzothiazol-5-yl)-4-cyclopropyl-N-[2-(trifluoromethyl)pyridin-4-yl]-1,2-thiazole-5-carboxamide]
The IC50 of the first is higher: 1 to 2.5 µM for the first, ≤ 0.4 µM for the second.
